Structures are written as SMILES.

The test system of one experiment is alpha and beta ERs. Conditions: cited from earlier work.
The test system of a further experiment is EGFR. Conditions: breast cancer cells; behave similarly to estradiol; cited from earlier work.
The next experiment addresses T1, GPR30 (Homo sapiens, UniProt Q99527).
T1 construct: human SKBR3 breast cancer cells (Erα^−, ERβ^−, GPR30^+); endogenous in cells
Kind of experiment: Estrogen-mediated fibronectin (FN) matrix assembly by human breast cancer cells. It counts as cell-based. Conditions: stimulation of human breast cancer cells.

The test system of a further experiment is ER+ ovarian cancer. Conditions: ovarian cancer patients, second-line therapy, Phase II; cited from earlier work.

T1 sequence (Q99527 whole entry): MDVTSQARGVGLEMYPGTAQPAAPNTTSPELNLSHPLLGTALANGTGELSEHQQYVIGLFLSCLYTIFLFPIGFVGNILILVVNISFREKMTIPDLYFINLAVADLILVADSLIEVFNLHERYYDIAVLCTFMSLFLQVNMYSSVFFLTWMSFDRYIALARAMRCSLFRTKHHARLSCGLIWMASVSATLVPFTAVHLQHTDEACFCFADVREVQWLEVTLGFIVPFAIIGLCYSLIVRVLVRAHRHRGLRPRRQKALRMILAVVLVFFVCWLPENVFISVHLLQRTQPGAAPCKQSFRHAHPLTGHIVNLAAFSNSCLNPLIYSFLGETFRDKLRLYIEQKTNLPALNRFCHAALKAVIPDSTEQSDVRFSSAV

Consider `O=C(c1ccc(OCCN2CCCCC2)cc1)c1c(-c2ccc(O)cc2)sc2cc(O)ccc12` [raloxifene], for which, in the experiment with alpha and beta ERs, the “Binding preference ERα versus ERβ” value is “bind preferentially to the alpha receptor”.

As for `C[C@]12CC[C@@H]3c4ccc(O)cc4CC[C@H]3[C@@H]1CC[C@@H]2O` [17β-estradiol], the “Binding preference ERα versus ERβ” value in the experiment with alpha and beta ERs is “binds equally well to both receptors”.

Consider `CC/C(=C(\c1ccccc1)c1ccc(OCCN(C)C)cc1)c1ccccc1` [tamoxifen], for which, in the experiment with EGFR, the EGFR activation entry is recorded as “capable of triggering EGFR activation in breast cancer cells”.

Turning to `C[C@]12CC[C@@H]3c4ccc(O)cc4C[C@@H](CCCCCCCCC[S+]([O-])CCCC(F)(F)C(F)(F)F)[C@H]3[C@@H]1CC[C@@H]2O` (stereo partly drawn) [ICI 182,780], the “FN matrix assembly: recruitment of FN-engaged integrin α5β1 conformers to fibrillar adhesions and synthesis of FN fibrils” value at GPR30 is “resulted in the recruitment of FN-engaged integrin α5β1 conformers to fibrillar adhesions and the synthesis of FN fibrils”. In addition, in the experiment on EGFR, the EGFR activation result is recorded as “capable of triggering EGFR activation in breast cancer cells”.

`N#Cc1ccc(C(c2ccc(C#N)cc2)n2cncn2)cc1` [Letrozole]: in the experiment on ER+ ovarian cancer, the “Clinical response measured by ovarian cancer serum marker CA-125” value is recorded as “stable disease”.
